{"source": "patent US20210134398A1", "about": "“Combinatorial Chemistry Computational System and Enhanced Selection Method” (Southern Methodist University, priority 2019, published 2021)", "key": {"[1]": {"system": "P-gp overexpressing prostate cancer cell line, DU145TXR", "test": "MTT cell viability assay, resensitization to paclitaxel", "type": "cell-based, human", "details": "for Fold vs PTX + 29: vs paclitaxel + parental compound 29; for Fold vs PTX (fold increased sensitivity): vs paclitaxel alone; for Resensitization of DU145TXR to paclitaxel / MDR reversal (in words): 3 to 10 μM inhibitor", "description": "The Group 1 ChemGen/docking routine produced variants of P-gp inhibitor 29 resensitize a multidrug resistant, P-gp overexpressing prostate cancer cell line to paclitaxel. The mitochondrial reduction potential of cells is often used as an indicator for cell viability using MTT assays^4. Using these assays it was observed that the five Group 1 derivatives of 29 predicted through the ChemGen/docking routine and synthesized here, 216, 227, 231, 541 and 551, re-sensitized the P-gp overexpressing prostate cancer cell line, DU145TXR^33, to the chemotherapeutic, paclitaxel (FIG. 12, showing results of assays at concentrations of 3 μM, 5 μM, 7 μM, and 10 μM).\nCytotoxicity of the chemotherapeutic, paclitaxel (PTX) to P-gp overexpressing prostate cancer cells, DU145TXR, was determined in the absence and presence of the ChemGen designed 29-variants, 216, 227, 231, 541 and 551. For each experimental compound IC50 values of PTX alone or in the presence of inhibitors, fold improvement of PTX sensitivity in the presence of inhibitor, and fold improvement of PTX sensitivity by variants compared to parental compound 29 are given.\nEffects of Group 2 variants on the paclitaxel sensitivity of P-glycoprotein overexpressing prostate cancer cells, DU145TXR. MTT assays were again used to assess the efficacy of the new structural 29-variants on sensitizing the chemotherapy-resistant prostate cancer cell line, DU145TXR, to paclitaxel, at concentrations of 3 μM, 5 μM, 7 μM, and 10 μM as shown in FIG. 15 and Table 4.\nMTT cell viability assay. Cells were trypsinized from monolayers and seeded with 3000 cells in 150 μL of complete medium in a 96 well plate. After 24 hours, cells were treated for 48 hours with paclitaxel (Acros Organics, NJ) and/or P-gp inhibitory compounds dissolved in DMSO, or DMSO controls. All additions were diluted into complete medium. After 48 hours of treatment, MTT assays were performed as described^41 using 5 mg/mL of MTT (Acros Organics, NJ) solution prepared in PBS (137 mM NaCl, 2.7 mM KCl, 10 mM Na2HPO4, 1.8 mM KH2PO4, pH 7.4). After 4 hours of incubation with MTT, the media was removed and the formazan crystals were dissolved in 100 μL of DMSO. The absorbance at 570 nm was then measured using a BioTek Cytation 5 imaging multi-mode reader (Bio-Tek, Winooski, Vt.). Percent viability was calculated using DMSO treated cells as representative for 100% viability, according to Equation 1. Background absorbance was determined using MTT and complete medium without cells and subtracted from all the test values. Equation 1:\nThe results were plotted as the mean with standard deviation (SD) of eight replicates per concentration from at least two independent experiments with n=8. The graphical representations and IC50 values were determined using four parameter variable slope non-linear regression, using the following equation: Y=bottom+(top-bottom)/(1+10^((log IC50−X)*Hill Slope) (GraphPad Prism™, La Jolla Calif., USA, Version 6.05). The reported “fold sensitization” was calculated as follows, per Equation 2: […]"}, "[2]": {"molecular_target": "T1, Cysteineless Mouse MDR3 P-glycoprotein (Mus musculus, UniProt P21447, C1070A/C1121A/C1223A/C133A/C427A/C638A/C669A/C713A/C952A)", "T1 construct": "made in house; host or cells: Pichia pastoris", "T1 sequence (P21447 whole entry C133A/C427A/C638A/C669A/C713A/C952A/C1070A/C1121A/C1223A)": "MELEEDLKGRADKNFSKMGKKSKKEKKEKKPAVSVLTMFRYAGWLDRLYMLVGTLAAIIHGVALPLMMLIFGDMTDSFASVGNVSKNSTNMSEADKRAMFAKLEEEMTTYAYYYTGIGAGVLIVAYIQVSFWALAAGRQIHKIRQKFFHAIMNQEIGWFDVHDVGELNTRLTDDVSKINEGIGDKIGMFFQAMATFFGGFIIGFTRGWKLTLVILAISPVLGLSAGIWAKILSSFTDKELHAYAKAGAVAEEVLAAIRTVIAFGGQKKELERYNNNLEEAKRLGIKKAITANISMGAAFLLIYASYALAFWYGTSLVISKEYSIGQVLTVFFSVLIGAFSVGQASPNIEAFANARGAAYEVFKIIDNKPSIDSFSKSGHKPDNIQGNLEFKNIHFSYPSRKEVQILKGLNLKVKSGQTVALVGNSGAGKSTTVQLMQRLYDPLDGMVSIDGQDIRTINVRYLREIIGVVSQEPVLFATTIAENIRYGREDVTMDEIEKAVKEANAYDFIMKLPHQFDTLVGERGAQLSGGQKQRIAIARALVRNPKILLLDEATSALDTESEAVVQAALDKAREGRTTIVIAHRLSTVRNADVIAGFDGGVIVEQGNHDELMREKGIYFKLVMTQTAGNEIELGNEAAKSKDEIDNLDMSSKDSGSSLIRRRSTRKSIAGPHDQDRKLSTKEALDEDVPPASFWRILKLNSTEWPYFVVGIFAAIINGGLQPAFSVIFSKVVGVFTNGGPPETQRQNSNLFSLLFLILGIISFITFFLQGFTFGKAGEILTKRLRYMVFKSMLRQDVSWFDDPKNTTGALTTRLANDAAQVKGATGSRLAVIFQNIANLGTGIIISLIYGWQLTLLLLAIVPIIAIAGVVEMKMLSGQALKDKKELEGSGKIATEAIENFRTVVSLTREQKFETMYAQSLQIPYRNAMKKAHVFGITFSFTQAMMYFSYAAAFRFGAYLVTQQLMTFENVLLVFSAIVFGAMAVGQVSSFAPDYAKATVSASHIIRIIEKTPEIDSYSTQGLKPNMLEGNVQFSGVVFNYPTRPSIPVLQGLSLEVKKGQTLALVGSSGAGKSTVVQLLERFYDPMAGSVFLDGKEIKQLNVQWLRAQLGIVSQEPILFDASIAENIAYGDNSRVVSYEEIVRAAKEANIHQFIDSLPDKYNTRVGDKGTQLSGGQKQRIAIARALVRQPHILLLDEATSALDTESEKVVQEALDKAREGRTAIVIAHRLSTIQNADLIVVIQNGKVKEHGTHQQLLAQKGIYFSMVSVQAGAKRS", "test": "ATPase activity assay (basal and verapamil-stimulated), purified P-gp in mixed micelles", "type": "biochemical", "details": "for Effect on stimulated ATPase / Stimulated ATPase: in the presence of verapamil; for Stimulated ATPase / Basal ATPase: ± standard deviation", "procedure": "Evaluation of mode of inhibition of P-glycoprotein by Group 1 and Group 2 variants of compound 29. To assess the mode of inhibition of P-gp by the novel variants of P-gp inhibitor 29, ATP hydrolysis by P-gp was evaluated in the presence or absence of the variants. […] Murine P-gp (MDR3) expressed in Pichia pastoris that had all naturally occurring cysteines replaced with alanine, was used^45, 46. It is widely assumed that the ATP hydrolytic rate of P-gp is stimulated in the presence of transport substrates when compared to ATP hydrolysis in the absence of transport substrates. Assays comparing these rates can therefore be useful not only in identifying inhibitors of P-gp catalyzed ATP hydrolysis, but also to potentially infer whether a compound might be a transport substrate if basal ATPase rates are stimulated by the addition of a compound.\nP-glycoprotein Purification. Cysteine-less MDR3 and the human normal MDR1 P-glycoprotein was recombinantly expressed in the yeast Pichia pastoris essentially as in^45, 46 and used for assaying ATP hydrolysis and ATP binding to the protein in the presence of the 29-variants. Purification of the protein was performed as described^49 with small modifications resulting in highly enriched P-gp in mixed micelles containing dodecyl maltoside (DDM) and lysophosphatidyl choline^26.\nATPase Activity Assays. ATP hydrolysis activity was measured using a coupled enzyme assay^72 as modified in reference^26."}, "[3]": {"molecular_target": "P-gp (P-gp over-expressing cell line, DU145TXR) (Homo sapiens, UniProt P08183)", "sequence (P08183 whole entry)": "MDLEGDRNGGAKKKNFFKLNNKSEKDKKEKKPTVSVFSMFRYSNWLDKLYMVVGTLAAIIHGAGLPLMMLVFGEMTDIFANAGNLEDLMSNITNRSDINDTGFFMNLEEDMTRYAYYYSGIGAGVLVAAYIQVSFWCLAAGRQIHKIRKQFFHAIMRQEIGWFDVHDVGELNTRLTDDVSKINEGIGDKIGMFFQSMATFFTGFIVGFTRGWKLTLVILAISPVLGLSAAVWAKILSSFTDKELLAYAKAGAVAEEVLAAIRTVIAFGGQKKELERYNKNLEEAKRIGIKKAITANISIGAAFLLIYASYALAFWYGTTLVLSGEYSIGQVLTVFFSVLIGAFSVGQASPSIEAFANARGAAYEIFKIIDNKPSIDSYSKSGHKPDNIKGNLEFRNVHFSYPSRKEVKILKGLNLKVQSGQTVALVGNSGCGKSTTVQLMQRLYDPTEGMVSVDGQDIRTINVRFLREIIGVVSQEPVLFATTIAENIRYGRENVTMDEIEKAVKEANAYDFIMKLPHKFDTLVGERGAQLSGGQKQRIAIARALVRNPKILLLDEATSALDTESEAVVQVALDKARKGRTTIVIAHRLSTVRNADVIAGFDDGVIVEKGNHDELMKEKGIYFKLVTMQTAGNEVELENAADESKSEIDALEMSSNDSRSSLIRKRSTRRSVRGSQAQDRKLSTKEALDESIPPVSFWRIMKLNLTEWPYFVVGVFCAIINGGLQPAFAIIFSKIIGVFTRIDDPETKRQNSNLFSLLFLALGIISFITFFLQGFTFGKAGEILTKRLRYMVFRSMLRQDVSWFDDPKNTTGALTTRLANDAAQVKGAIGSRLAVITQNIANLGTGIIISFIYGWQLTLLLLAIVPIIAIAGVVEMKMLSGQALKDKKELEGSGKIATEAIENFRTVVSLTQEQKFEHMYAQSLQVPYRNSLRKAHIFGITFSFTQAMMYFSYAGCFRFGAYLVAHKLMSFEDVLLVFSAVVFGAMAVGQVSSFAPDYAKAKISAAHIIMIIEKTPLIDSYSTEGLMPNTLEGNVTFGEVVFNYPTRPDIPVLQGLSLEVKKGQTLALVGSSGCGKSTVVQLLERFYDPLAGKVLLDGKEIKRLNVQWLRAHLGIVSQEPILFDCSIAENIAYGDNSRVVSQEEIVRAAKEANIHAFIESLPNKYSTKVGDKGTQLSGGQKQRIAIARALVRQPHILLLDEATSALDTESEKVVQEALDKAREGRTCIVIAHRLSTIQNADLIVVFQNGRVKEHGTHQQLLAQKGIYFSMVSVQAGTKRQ", "test": "Cellular accumulation of experimental compounds by LC-MS/MS with and without tariquidar", "details": "for Transport substrate for P-gp: not told", "procedure": "Stimulation of basal ATPase by 29-variants was used as an indicator that a compound may be a P-gp transport substrate. Effects on stimulated P-gp ATPase activity indicated whether a compound directly interfered with ATP usage by the protein (***, p<0.001; **, p<0.01; *, p<0.1; NS, not significant). Quantitative cellular accumulation of 29-variants was performed using LC-MS/MS and is presented as a ratio of the cellular amounts of 29-variants in the presence of P-gp inhibitor, tariquidar, divided by amounts accumulated in its absence. […] Binding of an ATP analog, SL-ATP, to P-gp was used to determine whether ATP binding to P-gp was affected by the 29-variants. Values +/−standard deviations are shown for at least three different P-gp preparations and three independent SL-ATP titration experiments. The values for SL-ATP binding in the presence of 29 were taken directly from Brewer et al. (2014).\nIntracellular accumulation of compound 29 variants. Cell accumulation assays for each of the 29 variants were performed as in reference^28 to more directly assess whether the compounds were indeed transport substrates for P-gp.\nCellular Accumulation Assays for Experimental P-gp Inhibitors. Cells used (DU145TXR), cell culturing, cell exposure to compounds, cellular handling and extractions were performed as described in^28. LC-MS/MS methods were performed as described in^71 and as modified in^28."}}, "note": "“Also recorded” adds a separate entry of the source.", "data": [{"smiles": "Cc1cc(C)c(-c2cc(NC(=O)CSCC(=O)Nc3ccc4ncsc4c3)n(-c3ccccc3)n2)cc1C", "note": "[29-255, 2-({[(1,3-benzothiazol-6-yl)carbamoyl]methyl}sulfanyl)-N-[1-phenyl-3-(2,4,5 trimethylphenyl)-1H-pyrazol-5-yl]acetamide]", "values": [{"measurement": "Fold vs PTX + 29", "setting": "[1]; 3 μM inhibitor", "value": "comparable to 238 at 3 μM"}, {"measurement": "Fold vs PTX (fold increased sensitivity)", "setting": "[1]; 7 μM inhibitor", "value": "about a thousand-fold"}, {"measurement": "Resensitization of DU145TXR to paclitaxel / MDR reversal (in words)", "setting": "[1]; listed as 255", "value": "increased paclitaxel toxicities to the greatest extents; also recorded: vastly outperformed compounds 278, 280 and 286; also recorded: reversed MDR"}, {"measurement": "Effect on stimulated ATPase", "setting": "[2]; listed as SMU29-255", "value": "none"}, {"measurement": "Stimulated ATPase", "setting": "[2]", "value": "123 ± 15 % of DMSO"}, {"measurement": "Effect on basal ATPase", "setting": "[2]; no added transport substrate", "value": "stimulator"}, {"measurement": "Stimulation of basal ATPase", "setting": "[2]; no added transport substrate", "value": "~3", "unit": "fold"}, {"measurement": "Basal ATPase", "setting": "[2]; no added transport substrate", "value": "355 ± 7 % of DMSO"}, {"measurement": "Intracellular accumulation in absence vs presence of tariquidar (in words)", "setting": "[3]", "value": "more modest, but statistically significant increases"}, {"measurement": "Cellular accumulation: ratio of plus Tariquidar over no Tariquidar", "setting": "[3]; human", "value": 1.2}]}, {"smiles": "Cc1cc(C)c(-c2cc(NC(=O)CSc3nnc4c(n3)[nH]c3ccccc34)n(-c3ccccc3)n2)cc1C", "note": "[29-541, 2-((5H-[1,2,4]triazino[5,6-b]indol-3-yl)thio)-N-(1-phenyl-3-(2,4,5-trimethylphenyl)-1H-pyrazol-5-yl)acetamide]", "values": [{"measurement": "Resensitization of DU145TXR to paclitaxel / MDR reversal (in words)", "setting": "[1]; listed as 541", "value": "re-sensitized; also recorded: more effective than 29 at all concentrations tested"}, {"measurement": "Effect on stimulated ATPase", "setting": "[2]; listed as 541", "value": "inhibited activity similar to parental compound 29; also recorded: inhibited verapamil-stimulated ATPase activity"}, {"measurement": "Effect on stimulated ATPase", "setting": "[2]; listed as SMU29-541", "value": "inhibitor"}, {"measurement": "Stimulated ATPase", "setting": "[2]", "value": "68 ± 7 % of DMSO"}, {"measurement": "Effect on basal ATPase", "setting": "[2]; no added transport substrate, listed as 541", "value": "did not significantly affect; also recorded: did not activate"}, {"measurement": "Effect on basal ATPase", "setting": "[2]; no added transport substrate, listed as SMU29-541", "value": "none"}, {"measurement": "Basal ATPase", "setting": "[2]; no added transport substrate", "value": "101 ± 12 % of DMSO"}, {"measurement": "Cellular accumulation: ratio of plus Tariquidar over no Tariquidar", "setting": "[3]; human", "value": 1.0}, {"measurement": "Transport substrate for P-gp", "setting": "[3]; human", "value": "none of the Group 1 compounds functions as a transport substrate of P-gp"}, {"measurement": "Transport substrate for P-gp", "setting": "[3]", "value": "no"}]}, {"smiles": "Cc1cc(C)c(-c2cc(NC(=O)CSCC(=O)Nc3ccc4ccccc4c3)n(-c3ccccc3)n2)cc1C", "note": "[29-231, 2-({[(naphthalen-2-yl)carbamoyl]methyl}sulfanyl)-N-[1-phenyl-3-(2,4,5-trimethylphenyl)-1H-pyrazol-5-yl]acetamide]", "values": [{"measurement": "Fold vs PTX + 29", "setting": "[1]; 3 μM inhibitor, listed as 231", "value": 4.1, "unit": "fold"}, {"measurement": "Fold vs PTX (fold increased sensitivity)", "setting": "[1]; 3 μM inhibitor", "value": 14, "unit": "fold"}, {"measurement": "Fold vs PTX + 29", "setting": "[1]; 5 μM inhibitor", "value": 4.2, "unit": "fold"}, {"measurement": "Fold vs PTX (fold increased sensitivity)", "setting": "[1]; 5 μM inhibitor", "value": 46, "unit": "fold"}, {"measurement": "Fold vs PTX + 29", "setting": "[1]; 7 μM inhibitor", "value": 8.4, "unit": "fold"}, {"measurement": "Fold vs PTX (fold increased sensitivity)", "setting": "[1]; 7 μM inhibitor", "value": 303, "unit": "fold"}, {"measurement": "Fold vs PTX + 29", "setting": "[1]; 10 μM inhibitor", "value": 11, "unit": "fold"}, {"measurement": "Fold vs PTX (fold increased sensitivity)", "setting": "[1]; 10 μM inhibitor", "value": 1060, "unit": "fold"}, {"measurement": "Resensitization of DU145TXR to paclitaxel / MDR reversal (in words)", "setting": "[1]; listed as 231", "value": "re-sensitized; also recorded: more effective than 29 at all concentrations tested"}, {"measurement": "Effect on stimulated ATPase", "setting": "[2]; listed as 231", "value": "slightly stimulated"}, {"measurement": "Effect on stimulated ATPase", "setting": "[2]; listed as SMU26-231", "value": "stimulator"}, {"measurement": "Stimulated ATPase", "setting": "[2]", "value": "141 ± 18 % of DMSO"}, {"measurement": "Effect on basal ATPase", "setting": "[2]; no added transport substrate, listed as SMU26-231", "value": "inhibitor"}, {"measurement": "Basal ATPase", "setting": "[2]; no added transport substrate", "value": "70 ± 0 % of DMSO"}, {"measurement": "Intracellular accumulation in absence vs presence of tariquidar (in words)", "setting": "[3]", "value": "no significant cellular accumulation"}, {"measurement": "Cellular accumulation: ratio of plus Tariquidar over no Tariquidar", "setting": "[3]; human", "value": 0.9}, {"measurement": "Transport substrate for P-gp", "setting": "[3]; human", "value": "none of the Group 1 compounds functions as a transport substrate of P-gp"}, {"measurement": "Transport substrate for P-gp", "setting": "[3]", "value": "no"}]}]}
